Reference: publication PMC11876601 (Molecular Systems Biology, 2025)
Like-named read-outs stand apart in the source and are kept apart here.

Tested on: p-sites in DNA-damaged AsPC-1 cells
Experiment: decryptM dose-resolved phosphoproteomics of ATRi in GEM-pre-treated cells
Type: cell-based, human
Conditions: for EC50: Homo sapiens
Experimental: Cell culture medium was replaced 24 h after seeding. […] For time point 0, AsPC-1 cells were treated with a vehicle and lysed immediately. The final DMSO concentration in all experiments was 0.2%.
Briefly, cells were washed twice with PBS and lysed in SDS lysis buffer (2% SDS in 40 mM Tris-HCl, pH 7.6), followed by sonication for 10 min (30 s on/30 s off) using a Bioruptor (Diagenode). For DNA hydrolysis, samples were boiled at 95 °C for 10 min and incubated with 2% trifluoroacetic acid (TFA) for 1 min, before the reaction was quenched using 4% N-methylmorpholine. Lysate was cleared by centrifugation at 11,000 × g for 5 min and protein concentration was determined using the Pierce BCA Protein Assay Kit (Thermo Scientific).
Using 70% ethanol, samples were then precipitated on beads, followed by washing thrice with 80% ethanol and once with 100% acetonitrile. Subsequently, proteins were reduced and alkylated using 10 mM TCEP, 50 mM chloroacetamide, and 2 mM CaCl2 in 100 mM EPPS/NaOH, pH 8.5 for 1 h at 37 °C, followed by tryptic digestion at 37 °C for 16 h. Peptides were acidified with 1% TFA and desalted on Chromabond HLB plates (30 µm particle size, 10 mg capacity, Machery-Nagel), using 0.1% TFA for equilibration and sample loading, and 0.1% TFA in 70% acetonitrile for peptide elution. Recovered peptides were freeze-dried by vacuum-centrifugation and stored at −20 °C.
Depending on the experiment, samples were either labeled with TMT-11plex (decryptM), TMT-10plex (non-decryptM, quadruplicates), or TMTpro reagent (time-series; all Thermo Scientific). Therefore, dried peptides were reconstituted in 15 µl 100 mM EPPS, pH 8.5 and each treatment condition was labeled with one channel of the respective TMT reagent (5 µl of 25 µg/µl reagent, Appendix Tables S4–S6). The reaction was incubated for 1 h at 23 °C and subsequently quenched with 0.4% hydroxylamine. Then, samples were pooled, acidified with 1% formic acid, and freeze-dried by vacuum-centrifugation. Labeled peptide pools were desalted on C18 Sep-Pak cartridges (37–55 µm particle size, 50 mg capacity, Waters), using 0.1% formic acid as equilibration solvent, and 0.1% formic acid in 60% acetonitrile was used as elution solvent. Eluted peptides were freeze-dried and stored at −20 °C until further use.
Basic reversed-phase (bRP) fractionation of peptides was performed on a Vanquish HPLC (Thermo Scientific). In short, dried peptides were reconstituted in 200 µl 25 mM ammonium bicarbonate, pH 8.0 and directly injected onto a Waters BEH130 XBridge C18 column (3.5 µm, 4.6 × 250 mm). […] Using an automated fraction collector, 96 fractions were collected between min 7 and 55 after injection. Fractions were acidified with 1% formic acid and pooled to 48 fractions, before they were freeze-dried and stored at −20 °C.
Immobilized metal ion affinity chromatography (IMAC) enrichment of phosphorylated peptides was performed on the Bravo automated liquid handling platform using AssayMAP Fe(III)-NTA cartridges (Agilent). In brief, the 48 dried peptide fractions were reconstituted in 0.1% TFA in 80% acetonitrile and further pooled to 12 fractions (200 µl final volume per well). The phosphopeptide enrichment protocol embedded in the Agilent AssayMAP Bravo Protein Sample Prep Workbench v2.0 software was run. Thereby, the cartridges were first primed with 150 μl 0.1% TFA in acetonitrile at 300 μl/min, and equilibrated with 150 μl 0.1% TFA in 80% acetonitrile at 10 μl/min. Then, pooled fractions were loaded at 5 µl/min and further washed three times with 150 μl 0.1% TFA in 80% acetonitrile at 50 μl/min. Enriched peptides were eluted with 60 μl 1% ammonium hydroxide at 5 μl/min.

SMILES: CNCc1ccc(-c2cc(-c3nc(-c4ccc(S(=O)(=O)C(C)C)cc4)cnc3N)on2)cc1 [Berzosertib]
- Log2 PTM response (GEM+ATRi vs. GEM) (AASDHPPT-pS258): -2
- Log2 PTM response (GEM+ATRi vs. GEM) (BRCA1-pS1239): -1.2
- Log2 PTM response (GEM+ATRi vs. GEM) (BRD8-pS621): -2.5
- Log2 PTM response (GEM+ATRi vs. GEM) (CDKN2AIP-pS198): -2
- Log2 PTM response (GEM+ATRi vs. GEM) (CHEK1-pS317): -2.8
- Log2 PTM response (GEM+ATRi vs. GEM) (CHEK1-pS468): -2.9
- Log2 PTM response (GEM+ATRi vs. GEM) (DHX9-pS321): -2.3
- Log2 PTM response (GEM+ATRi vs. GEM) (EXO1-pS714): -2.7
- Log2 PTM response (GEM+ATRi vs. GEM) (FANCD2-pS319): -2.6
- Log2 PTM response (GEM+ATRi vs. GEM) (HDGF-pS103): -2.4
- Log2 PTM response (GEM+ATRi vs. GEM) (HMGA1-pS9): -3
- Log2 PTM response (GEM+ATRi vs. GEM) (HMGA1-pS36;S44): -1.4
- Log2 PTM response (GEM+ATRi vs. GEM) (HMGA1-pS44): -2.9
- Log2 PTM response (GEM+ATRi vs. GEM) (HSPA4-pS552): -2.1
- Log2 PTM response (GEM+ATRi vs. GEM) (HTATSF1-pS481): -2
- EC50 (ASPC1, read-out: EC50 of the majority of pSQ/pTQ sites): ~100 nM
- EC50 (ASPC1, read-out: pEC50 of the majority of pSQ/pTQ sites (converted)): ~100 nM
- EC50 (ASPC1, p-site dose-response in GEM-pre-treated cells, read-out: EC50, PPM1G S201): 61.6 nM
- EC50 (ASPC1, p-site dose-response in GEM-pre-treated cells, read-out: EC50, RALY S176): 124 nM
- EC50 (ASPC1, p-site dose-response in GEM-pre-treated cells, read-out: pEC50, PPM1G S201 (converted)): 61.7 nM
- EC50 (ASPC1, p-site dose-response in GEM-pre-treated cells, read-out: pEC50, RALY S176 (converted)): 126 nM
- EC50 (ASPC1, read-out: median EC50 across all drug-regulated pSQ/pTQ-sites): 188 nM
- Log2 PTM response (GEM+ATRi vs. GEM) (LRRC42-pS385): -3.3
- Log2 PTM response (GEM+ATRi vs. GEM) (NBN-pS397): -1.8
- Log2 PTM response (GEM+ATRi vs. GEM) (NBN-pS615): -0.9
- Log2 PTM response (GEM+ATRi vs. GEM) (NSUN5-pS432): -3.5
- Log2 PTM response (GEM+ATRi vs. GEM) (PELP1-pS1033): -1.4
- Log2 PTM response (GEM+ATRi vs. GEM) (PHF14-pS294): -1.9
- Log2 PTM response (GEM+ATRi vs. GEM) (PNISR-pS706): -2.2
- Log2 PTM response (GEM+ATRi vs. GEM) (PPM1G-pS201): -3.5
- Log2 PTM response (GEM+ATRi vs. GEM) (PPP6R3-pS825): -1.4
- Log2 PTM response (GEM+ATRi vs. GEM) (PSMD4-pS266): -1.6
- Log2 PTM response (GEM+ATRi vs. GEM) (RAD18-pS368): -1
- Log2 PTM response (GEM+ATRi vs. GEM) (RIF1-pS1873): -2.2
- Log2 PTM response (GEM+ATRi vs. GEM) (SNRPA-pS115): -1.2
- Log2 PTM response (GEM+ATRi vs. GEM) (TCEA1-pS100;S97): -1
- Log2 PTM response (GEM+ATRi vs. GEM) (TCEB3-pS251): -2.1
- Log2 PTM response (GEM+ATRi vs. GEM) (TOPBP1-pS1504): -1.9
- Log2 PTM response (GEM+ATRi vs. GEM) (TSEN34-pS136): -1.2
- Log2 PTM response (GEM+ATRi vs. GEM) (UHRF1-pS393): -2.3
- Log2 PTM response (GEM+ATRi vs. GEM) (UIMC1-pS171): -1.5
- Log2 PTM response (GEM+ATRi vs. GEM) (ZC3H14-pS135): -1.5
- ATRi Regulation (Curve), PPM1G S201 (classified by CurveCurator): down
- ATRi Regulation (Curve), RALY S176 (classified by CurveCurator): down
- PTM response (norm. to 1 µM GEM) (source data 4B (p-site not named), 1 µM GEM + ATRi 1 nM): 1.08
- PTM response (norm. to 1 µM GEM) (source data 4B (p-site not named), 1 µM GEM + ATRi 3 nM): 1.06
- PTM response (norm. to 1 µM GEM) (source data 4B (p-site not named), 1 µM GEM + ATRi 10 nM): 0.94
- PTM response (norm. to 1 µM GEM) (source data 4B (p-site not named), 1 µM GEM + ATRi 30 nM): 1.20
- PTM response (norm. to 1 µM GEM) (source data 4B (p-site not named), 1 µM GEM + ATRi 100 nM): 0.78
- PTM response (norm. to 1 µM GEM) (source data 4B (p-site not named), 1 µM GEM + ATRi 300 nM): 0.40
- PTM response (norm. to 1 µM GEM) (source data 4B (p-site not named), 1 µM GEM + ATRi 1000 nM): 0.20
- PTM response (norm. to 1 µM GEM) (source data 4B (p-site not named), 1 µM GEM + ATRi 3000 nM): 0.14
- PTM response (norm. to 1 µM GEM) (source data 4B (p-site not named), 1 µM GEM + ATRi 10000 nM): 0.15
- PTM response (norm. to 1 µM GEM) (source data 5B (p-site not named), 1 µM GEM + ATRi 1 nM): 0.81
- PTM response (norm. to 1 µM GEM) (source data 5B (p-site not named), 1 µM GEM + ATRi 3 nM): 0.96
- PTM response (norm. to 1 µM GEM) (source data 5B (p-site not named), 1 µM GEM + ATRi 10 nM): 0.69
- PTM response (norm. to 1 µM GEM) (source data 5B (p-site not named), 1 µM GEM + ATRi 30 nM): 0.83
- PTM response (norm. to 1 µM GEM) (source data 5B (p-site not named), 1 µM GEM + ATRi 100 nM): 0.51
- PTM response (norm. to 1 µM GEM) (source data 5B (p-site not named), 1 µM GEM + ATRi 300 nM): 0.19
- PTM response (norm. to 1 µM GEM) (source data 5B (p-site not named), 1 µM GEM + ATRi 1000 nM): 0.12
- PTM response (norm. to 1 µM GEM) (source data 5B (p-site not named), 1 µM GEM + ATRi 3000 nM): 0.13
- PTM response (norm. to 1 µM GEM) (source data 5B (p-site not named), 1 µM GEM + ATRi 10000 nM): 0.12
